Reference: ChEMBL document CHEMBL2177054, “Rational design of conformationally constrained cyclopentapeptide antagonists for C-x-C chemokine receptor 4 (CXCR4)” (J Med Chem, 2012)

Molecular target: C-X-C chemokine receptor type 4 (Homo sapiens, UniProt P61073)
Assay: Antagonist activity against human CXCR4 expressed in COS7 cells assessed as inhibition of CXCL12-induced myo-[3H]inositol production by scintillation counting
Assay type: functional, cell-based, COS-7

C-X-C chemokine receptor type 4, sequence (P61073 whole entry): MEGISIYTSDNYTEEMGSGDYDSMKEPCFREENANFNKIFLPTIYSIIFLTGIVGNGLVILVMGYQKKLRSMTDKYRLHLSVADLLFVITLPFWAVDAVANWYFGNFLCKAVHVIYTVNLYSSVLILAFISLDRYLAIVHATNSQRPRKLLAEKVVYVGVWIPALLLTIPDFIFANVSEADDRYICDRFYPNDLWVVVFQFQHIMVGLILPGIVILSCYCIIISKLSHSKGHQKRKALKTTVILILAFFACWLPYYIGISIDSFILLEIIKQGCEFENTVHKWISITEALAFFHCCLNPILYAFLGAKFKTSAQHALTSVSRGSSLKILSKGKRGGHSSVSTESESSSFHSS

EC50 [µM] | SMILES
0.26 | N=C(N)NCCC[C@@H]1NC(=O)C2(CCN(C(=N)N)CC2)NC(=O)[C@@H](Cc2ccc(O)cc2)NC(=O)CNC(=O)[C@H](Cc2ccc3ccccc3c2)NC1=O
15 | N=C(N)NCCC[C@@H]1NC(=O)[C@H](Cc2ccc(N)cc2)NC(=O)[C@@H](Cc2ccc(O)cc2)NC(=O)CNC(=O)[C@H](Cc2ccc3ccccc3c2)NC1=O
5.4 | N=C(N)NCCC[C@@H]1NC(=O)C2(CCCCC2)NC(=O)[C@@H](Cc2ccc(O)cc2)NC(=O)CNC(=O)[C@H](Cc2ccc3ccccc3c2)NC1=O
0.56 | N=C(N)NCCC[C@@H]1NC(=O)C2(CCNCC2)NC(=O)[C@@H](Cc2ccc(O)cc2)NC(=O)CNC(=O)[C@H](Cc2ccc3ccccc3c2)NC1=O
> 100 | N=C(N)NCCC[C@@H]1NC(=O)[C@@H](Cc2ccc(O)cc2)NC(=O)CNC(=O)[C@H](Cc2ccc3ccccc3c2)NC(=O)[C@H](CCCNC(N)=O)NC1=O
3.6 | CC1(C)NC(=O)[C@@H](Cc2ccc(O)cc2)NC(=O)CNC(=O)[C@H](Cc2ccc3ccccc3c2)NC(=O)[C@H](CCCNC(=N)N)NC1=O
36 | N=C(N)NCCC[C@@H]1NC(=O)CNC(=O)[C@@H](Cc2ccc(O)cc2)NC(=O)CNC(=O)[C@H](Cc2ccc3ccccc3c2)NC1=O
2.9 | N=C(N)NCCC[C@@H]1NC(=O)[C@H](CCCNC(N)=O)NC(=O)[C@@H](Cc2ccc(O)cc2)NC(=O)CNC(=O)[C@H](Cc2ccc3ccccc3c2)NC1=O
0.68 | N=C(N)NCCC[C@@H]1NC(=O)[C@H](Cc2ccc(NC(=N)N)cc2)NC(=O)[C@@H](Cc2ccc(O)cc2)NC(=O)CNC(=O)[C@H](Cc2ccc3ccccc3c2)NC1=O
> 100 | NC(=O)NCCC[C@@H]1NC(=O)[C@H](CCCNC(N)=O)NC(=O)[C@@H](Cc2ccc(O)cc2)NC(=O)CNC(=O)[C@H](Cc2ccc3ccccc3c2)NC1=O
7.2 | N=C(N)NCCC[C@@H]1NC(=O)[C@H](Cc2ccccc2)NC(=O)[C@@H](Cc2ccc(O)cc2)NC(=O)CNC(=O)[C@H](Cc2ccc3ccccc3c2)NC1=O
